Test results published in the supplement of paper PMC7661543.
± gives the standard deviation of the averaged measurements.

Legend:
Test in all cases: relative cell number vs DMSO control (72 h) (% of DMSO); higher = less growth inhibition (more cells)
Details in all cases: sgRNA knockout: sgNT
HCC-38 = system: HCC-38
How it was run: (§1)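 After 6 days of induction with 100 ng/mL doxycycline, pooled Cas9-engineered breast cancer lines were plated at 5000 cells per 96-well and dosed in duplicate for 72 h at four 10-fold concentrations (10 nM–10 μM or 1 nM–1 μM). Cell numbers came from sequenced sgRNA and cell-line barcode reads, interpolated against 293T spike-in standard curves made for each sample. Relative cell number is reported against the median of DMSO-treated samples as a percent.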

SKBR3 = system: SKBR3
How it was run: as §1

BT-20 = system: BT-20
How it was run: as §1

ZR-75-1 = system: ZR-75-1
How it was run: as §1

MDA-MB-231 = system: MDA-MB-231
How it was run: as §1

Structure (SMILES) | relative cell number (HCC-38; 10 nM) | relative cell number (HCC-38; 100 nM) | relative cell number (HCC-38; 1000 nM) | relative cell number (HCC-38; 10000 nM) | relative cell number (SKBR3; 10 nM) | relative cell number (SKBR3; 100 nM) | relative cell number (SKBR3; 1000 nM) | relative cell number (SKBR3; 10000 nM) | relative cell number (BT-20; 10 nM) | relative cell number (BT-20; 100 nM) | relative cell number (BT-20; 1000 nM) | relative cell number (BT-20; 10000 nM) | relative cell number (ZR-75-1; 10 nM) | relative cell number (ZR-75-1; 100 nM) | relative cell number (ZR-75-1; 1000 nM) | relative cell number (ZR-75-1; 10000 nM) | relative cell number (MDA-MB-231; 10 nM) | relative cell number (MDA-MB-231; 100 nM) | relative cell number (MDA-MB-231; 1000 nM) | relative cell number (MDA-MB-231; 10000 nM) | relative cell number (HCC-38; 1 nM) | relative cell number (SKBR3; 1 nM) | relative cell number (BT-20; 1 nM) | relative cell number (ZR-75-1; 1 nM) | relative cell number (MDA-MB-231; 1 nM)
O=C1NC(=O)[C@@H](c2cn3c4c(cccc24)CCC3)[C@@H]1c1c[nH]c2ccccc12 [Tivantinib] | 89.1 ± 20 | 84.9 ± 14 | 39.6 ± 4.2 | 25.8 ± 3.1 | 94.9 ± 2.9 | 71.06 ± 0.6 | 19.5 ± 5.7 | 6.47 ± 2 | 109 ± 24 | 83.6 ± 12 | 53 ± 6.2 | 26 ± 1.1 | 69.2 ± 29 | 70.4 ± 1.6 | 20.4 ± 6.4 | 16.6 ± 1.9 | 107 ± 20 | 97.1 ± 6.3 | 34.2 ± 18 | 22.9 ± 13 | – | – | – | – | –
COc1cc2nccc(Oc3ccc(NC(=O)Nc4cc(C)on4)c(Cl)c3)c2cc1OC [Tivozanib] | 94.3 ± 6.2 | 94.5 ± 10 | 98.6 ± 11 | 48.4 ± 2.2 | 103 ± 5.7 | 97.7 ± 19 | 96.2 ± 3.3 | 62.3 ± 7 | 87.3 ± 13 | 75.4 ± 7 | 101 ± 8.1 | 79.4 ± 11 | 83.6 ± 67 | 101 ± 13 | 115 ± 4.3 | 33.8 ± 12 | 101 ± 2.9 | 105 ± 6.9 | 94.7 ± 14 | 63.3 ± 3.9 | – | – | – | – | –
CC[C@@]1(O)C(=O)OCc2c1cc1n(c2=O)Cc2cc3c(CN(C)C)c(O)ccc3nc2-1 [Topotecan] | 52.1 ± 9.8 | 20.9 ± 0.31 | 12.1 ± 1.6 | 8.742 ± 0.069 | 58.7 ± 5.9 | 34.7 ± 19 | 12.1 ± 2.9 | 6.08 ± 3.9 | 73.1 ± 10 | 49 ± 8.1 | 30.9 ± 2.8 | 12.1 ± 3.9 | 65.9 ± 3.4 | 37 ± 5.1 | 14 ± 5.7 | 11.8 ± 9.3 | 85.1 ± 59 | 26 ± 0.82 | 16.9 ± 1.2 | 8.21 ± 3.3 | – | – | – | – | –
CC(=O)Nc1cccc(-n2c(=O)n(C3CC3)c(=O)c3c(Nc4ccc(I)cc4F)n(C)c(=O)c(C)c32)c1 [Trametinib] | 100 ± 5.3 | 78 ± 5.7 | 79.2 ± 5.8 | 71.3 ± 2.2 | 116 ± 3.5 | 72.4 ± 22 | 87 ± 36 | 58.7 ± 19 | 97.3 ± 1.3 | 65.2 ± 12 | 70.5 ± 16 | 82.8 ± 37 | 101 ± 9.6 | 51.9 ± 2.8 | 43.3 ± 13 | 40.3 ± 22 | 102 ± 27 | 66.9 ± 6 | 39.9 ± 6 | 20.1 ± 2.6 | – | – | – | – | –
CN1CCN(CCCN2c3ccccc3Sc3ccc(C(F)(F)F)cc32)CC1 [Trifluoperazine] | 97.3 ± 7 | 86.1 ± 5.2 | 111 ± 8.7 | 80.4 ± 6.6 | 57.9 ± 35 | 79 ± 23 | 80.65 ± 0.72 | 50.3 ± 10 | 80.3 ± 46 | 90.7 ± 11 | 82.4 ± 4.9 | 78.4 ± 15 | 77.4 ± 46 | 81.3 ± 30 | 80.7 ± 20 | 37.4 ± 5.8 | 77.9 ± 18 | 117 ± 43 | 99.2 ± 25 | 77.8 ± 7.4 | – | – | – | – | –
CC(C)[C@]12O[C@H]1[C@@H]1O[C@]13[C@]1(O[C@H]1C[C@H]1C4=C(CC[C@@]13C)C(=O)OC4)[C@@H]2O [Triptolide] | 66 ± 0.14 | 23.4 ± 5.6 | 20.5 ± 2.7 | – | 54.6 ± 19 | 12.4 ± 9 | 8.93 ± 1.3 | – | 94.44 ± 0.19 | 39.9 ± 12 | 20.8 ± 7.7 | – | 78 ± 18 | 11.3 ± 8.5 | 7.98 ± 1.1 | – | 44 ± 14 | 16.5 ± 7.3 | 13.7 ± 4.4 | – | 97.9 ± 20 | 83.4 ± 9 | 93.1 ± 20 | 71.2 ± 23 | 86.6 ± 8.6
